# Reference: patent US20220101973A1, “PERSONALIZED TREATMENT TOOL” (Roche Diabetes Care, Inc., priority 2018, published 2022)
# Entries after “also recorded” stand apart in the source; their conditions may differ. Where two headings read alike, the source gives them in different places.
# What was measured:
# type 2 diabetes patients [1] = conditions: cited from earlier work
# type 2 diabetes patients [2] = assay: Hyperglycemia Efficacy Index (HEI) of diabetes drugs, from review of phase III trials with 7- or 8-point SMBG; assay type: in vivo, human; conditions: median ratio of effect on FBG vs effect on PPG; drugs from the same class have the same HEI
# Excerpt: Such results can be e.g. assessed via scientific publications or regulatory documents which disclose the results for the trials. Suitable scientific publications describing such trials for individual drugs can be, e.g., identified via PubMed. In an embodiment, the trials have assessed large cohorts of diabetes patients such as type 2 diabetes patients and report 7- or 8 point self-monitoring blood glucose data with determinations carried out in the fasting state, in the pre-prandial state and in the post-prandial state. In an embodiment, the trials include only type 2 diabetes patients without major comorbidities.
# For establishing the database, the published information on the effects under (d1), (d2), and the risk under (d4) shall be taken into account. The indices under (d3), can be determined based on the published information for the analyzed trials.
# In an embodiment, the Hyperglycemia Efficacy Index (HEI) for a drug is the ratio of the effect of said drug on fasting glucose to the effect of said drug on post-prandial glucose (i.e. the effect under (d1) and the effect under (d2)).
compound,measurement,setting,value
Cc1ccc(S(=O)(=O)NC(=O)NN2CC3CCCC3C2)cc1 (stereo not drawn) [Gliclazide],Hypo Risk Index (HRI),type 2 diabetes patients [1]; 80-320 mg,HRI 2 - moderate; also recorded: HRI 2 - medium
CCOc1cc(CC(=O)N[C@@H](CC(C)C)c2ccccc2N2CCCCC2)ccc1C(=O)O [Repaglinide],Hypo Risk Index (HRI),type 2 diabetes patients [1]; 1.5-12 mg,HRI 2 - medium
same,Hyperglycemia Efficacy Index (HEI),type 2 diabetes patients [2],HEI 0.62
Cc1ccc([C@@H]2O[C@H](CO)[C@@H](O)[C@H](O)[C@H]2O)cc1Cc1ccc(-c2ccc(F)cc2)s1 [Canagliflozin],Hypo Risk Index (HRI),type 2 diabetes patients [1]; 100 mg,HRI 1 - low
same,Hypo Risk Index (HRI),type 2 diabetes patients [1]; 300 mg,HRI 1 - low
CN(C)C(=N)N=C(N)N [Metformin],Hypo Risk Index (HRI),type 2 diabetes patients [1]; ≥1000 mg,HRI 1 - low
same,Hyperglycemia Efficacy Index (HEI),type 2 diabetes patients [2],HEI 0.59
C[C@H]1O[C@H](O[C@H]2[C@H](O)[C@@H](O)[C@@H](O[C@H]3[C@H](O)[C@@H](O)C(O)O[C@@H]3CO)O[C@@H]2CO)[C@H](O)[C@@H](O)[C@@H]1N[C@H]1C=C(CO)[C@@H](O)[C@H](O)[C@H]1O (stereo partly drawn) [Acarbose],Hypo Risk Index (HRI),type 2 diabetes patients [1]; 30 mg,HRI 1 - low
same,Hypo Risk Index (HRI),type 2 diabetes patients [1]; 300 mg,HRI 1 - low
same,Hyperglycemia Efficacy Index (HEI),type 2 diabetes patients [2],HEI 0.54
Exenatide LAR,Hypo Risk Index (HRI),type 2 diabetes patients [1]; 2 mg,HRI 1 - low
same,Hyperglycemia Efficacy Index (HEI),type 2 diabetes patients [2],HEI 0.76
Dulaglutide,Hypo Risk Index (HRI),type 2 diabetes patients [1]; 0.75 mg,HRI 1 - low
same,Hypo Risk Index (HRI),type 2 diabetes patients [1]; 1.5 mg,HRI 1 - low
CCOc1ccc(Cc2cc([C@@H]3O[C@H](CO)[C@@H](O)[C@H](O)[C@H]3O)ccc2Cl)cc1 [Dapagliflozin],Hypo Risk Index (HRI),type 2 diabetes patients [1]; 10 mg,HRI 1 - low
CCC1=C(C)CN(C(=O)NCCc2ccc(S(=O)(=O)NC(=O)N[C@H]3CC[C@H](C)CC3)cc2)C1=O [Glimepiride],Hypo Risk Index (HRI),type 2 diabetes patients [1]; 1-8 mg,HRI 2 - moderate; also recorded: HRI 2 - medium
OC[C@H]1O[C@@H](c2ccc(Cl)c(Cc3ccc(O[C@H]4CCOC4)cc3)c2)[C@H](O)[C@@H](O)[C@@H]1O [Empagliflozin],Hypo Risk Index (HRI),type 2 diabetes patients [1]; 10 mg,HRI 1 - low
same,Hypo Risk Index (HRI),type 2 diabetes patients [1]; 25 mg,HRI 1 - low
same,Hyperglycemia Efficacy Index (HEI),type 2 diabetes patients [2],HEI 0.56
CCCCCCCCCCCCCCCC(=O)N[C@@H](CCC(=O)NCCCC[C@H](NC(=O)[C@H](C)NC(=O)[C@H](C)NC(=O)[C@H](CCC(N)=O)NC(=O)CNC(=O)[C@H](CCC(=O)O)NC(=O)[C@H](CC(C)C)NC(=O)[C@H](Cc1ccc(O)cc1)NC(=O)[C@H](CO)NC(=O)[C@H](CO)NC(=O)[C@@H](NC(=O)[C@H](CC(=O)O)NC(=O)[C@H](CO)NC(=O)[C@@H](NC(=O)[C@H](Cc1ccccc1)NC(=O)[C@@H](NC(=O)CNC(=O)[C@H](CCC(=O)O)NC(=O)[C@H](C)NC(=O)[C@@H](N)Cc1cnc[nH]1)[C@@H](C)O)[C@@H](C)O)C(C)C)C(=O)N[C@@H](CCC(=O)O)C(=O)N[C@@H](Cc1ccccc1)C(=O)N[C@H](C(=O)N[C@@H](C)C(=O)N[C@@H](Cc1c[nH]c2ccccc12)C(=O)N[C@@H](CC(C)C)C(=O)N[C@H](C(=O)N[C@@H](CCCNC(=N)N)C(=O)NCC(=O)N[C@@H](CCCNC(=N)N)C(=O)NCC(=O)O)C(C)C)[C@@H](C)CC)C(=O)O [Liraglutide],Hypo Risk Index (HRI),type 2 diabetes patients [1]; 1.2 mg,HRI 1 - low
same,Hypo Risk Index (HRI),type 2 diabetes patients [1]; 1.8 mg,HRI 1 - low
